Like-named read-outs stand apart in the source and are kept apart here. Marks after values point to notes of the source that are not given here.
Experiments:
E. coli TOP10F´/pMBLe = assay: MIC by broth microdilution, empty-vector control clone; assay type: cell-based; conditions: Escherichia coli; E. coli TOP10F´ with empty vector pMBLe; 50 µM IPTG; combinations given as β-lactam/inhibitor; read-out: Minimum inhibitory concentration
Description: (§1) The KPC-2 gene was recovered from a clinical Klebsiella pneumoniae strain previously characterized in our laboratory ([46]). E. coli TOP10 F´ (Invitrogen, USA) and E. coli BL21(DE3) (Novagen, Germany) were used as hosts for transformation experiments, to obtain recombinant clones for antimicrobial susceptibility and overexpression assays, respectively. Escherichia coli ATCC 25922 and ATCC 35218 were used as control strains for antimicrobial susceptibility assays.
(§2) Minimum inhibitory concentrations (MICs) of different β-lactams and combinations with β-lactamase inhibitors were determined by an adaptation of the broth microdilution method by the CLSI ([49]), as follows. As we used E. coli recombinant clones harboring pMBLe/bla constructions, where protein production is regulated by isopropyl-β-D-thiogalactoside (IPTG) induction ([47]), antimicrobial susceptibility assays were performed using Mueller Hinton broth supplemented with 50 µM IPTG. Also, as control strains we included the E. coli Top10F’ (used as recipient strain in transformation assays), and the same strain transformed with the empty vector pMBLe, to have a comparison under the same isogenic background.

E. coli TOP10F´ = assay: microbe, parasite or virus in culture; assay type: cell-based; conditions: Escherichia coli, read-out: Minimum inhibitory concentration
Description: as §1, §2

[1] = test system: E. coli TOP10F´ pMBLe/KPC-14; assay: MIC by broth microdilution, KPC-14-producing recombinant clone; assay type: cell-based, Escherichia coli; conditions: for MIC: Escherichia coli, E. coli TOP10F´ pMBLe/KPC-14, 50 µM IPTG, combinations given as β-lactam/inhibitor, read-out: Minimum inhibitory concentration; for MIC interpretation in KPC-14 recombinant clone: recombinant clone harboring KPC-14
Protocol: (§3) Ligation mixtures were transformed in chemically competent E. coli TOP10F´ cells, and recombinant clones were selected in Lysogeny broth (LB) agar supplemented with 20 µg/mL gentamicin or 30 µg/mL kanamycin, depending on whether the constructions were obtained in pMBLe or pET24a(+) vectors, respectively. Recombinant plasmids of the selected clones were extracted and sequenced to verify the identity of bla genes and their proper insertion.
as §2, with “IPTG.” for “IPTG. Also, as control strains we included the E. coli Top10F’ (used as recipient strain in transformation assays), and the same strain transformed with the empty vector pMBLe, to have a comparison under the same isogenic background.”

[2] = test system: E. coli TOP10F´ pMBLe/KPC-2; assay: MIC by broth microdilution, KPC-2-producing recombinant clone; assay type: cell-based; conditions: Escherichia coli, 50 µM IPTG, combinations given as β-lactam/inhibitor, read-out: Minimum inhibitory concentration
Protocol: as §3
as §2, with “IPTG.” for “IPTG. Also, as control strains we included the E. coli Top10F’ (used as recipient strain in transformation assays), and the same strain transformed with the empty vector pMBLe, to have a comparison under the same isogenic background.”

KPC-14 [3] = molecular target: T1, KPC-14 (Klebsiella pneumoniae, UniProt Q9F663, DEL241-242); assay: Steady-state kinetics of β-lactam hydrolysis by KPC-14; assay type: biochemical; conditions: for kcat / Km: KPC-14
T1 construct: amplify the entire blaKPC-14 gene with the cloning primers; made in house; host or cells: E. coli BL21(DE3), pET24a(+)
T1 sequence (Q9F663 25-240, added parts left off, stated change not applied): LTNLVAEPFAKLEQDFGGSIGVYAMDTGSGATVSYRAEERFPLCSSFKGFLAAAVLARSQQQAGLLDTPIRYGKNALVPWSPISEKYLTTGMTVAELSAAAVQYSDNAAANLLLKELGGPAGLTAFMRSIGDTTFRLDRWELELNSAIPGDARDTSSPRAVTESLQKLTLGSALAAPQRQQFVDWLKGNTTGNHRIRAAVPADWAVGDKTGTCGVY
Description: (Eq. 1) v=(Vmax×[S]) / (Km+[S])
(Eq. 2) KI=KI obs / (1+[NCF]/KM(NCF))

KPC-14 [4] = test system: KPC-14; set-up: method as in earlier work; conditions: ref 20 Oueslati et al., cited from earlier work
KPC-2 [5] = molecular target: T2, KPC-2 (Klebsiella pneumoniae, UniProt Q9F663); assay: Clavulanic acid inhibition and hydrolysis, KPC-2; assay type: biochemical
T2 construct: The complete blaKPC-2 gene was amplified from whole DNA; made in house; host or cells: E. coli BL21(DE3), pET24a(+)
T2 sequence (Q9F663 25-293 limits assumed): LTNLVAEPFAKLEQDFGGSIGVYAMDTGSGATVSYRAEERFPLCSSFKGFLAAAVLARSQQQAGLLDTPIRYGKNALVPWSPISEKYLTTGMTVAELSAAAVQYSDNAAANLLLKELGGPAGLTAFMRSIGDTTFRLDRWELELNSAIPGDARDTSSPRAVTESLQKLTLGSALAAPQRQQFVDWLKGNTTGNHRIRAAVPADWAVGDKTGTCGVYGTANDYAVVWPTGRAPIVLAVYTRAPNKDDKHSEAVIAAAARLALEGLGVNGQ
Protocol: (§4) To assess if KPC-14 shares the same behavior, KI app and kinact values for clavulanic acid of both enzymes were determined as previously reported ([32], [33]). The initial velocity (V0) of clavulanic acid hydrolysis was monitored at 235 nm ([32]), mixing an inhibitor concentration five times the KM determined and 100 nM of enzyme. V0 obtained under this condition was considered the Vmax and was used to determine the kcat for clavulanic acid.

KPC-14 [6] = molecular target: T1, KPC-14; assay: Clavulanic acid inhibition and hydrolysis, KPC-14; assay type: biochemical
Protocol: as §4

[7] = test system: CO/N=C(\C(=O)N[C@@H]1C(=O)N2C(C(=O)[O-])=C(C[N+]3(C)CCCC3)CS[C@H]12)c1csc(N)n1; assay: purified protein, by the assay type; conditions: other: KPC-2, 50 mM sodium phosphate pH 7.0, room temperature
[8] = test system: CC(C)(O/N=C(\C(=O)N[C@@H]1C(=O)N2C(C(=O)[O-])=C(C[n+]3ccccc3)CS[C@H]12)c1csc(N)n1)C(=O)O; assay: purified protein, by the assay type; conditions: other: KPC-2; determined with nitrocefin as reporter in competitive assays; pH 7.0
[9] = test system: CO/N=C(\C(=O)N[C@@H]1C(=O)N2C(C(=O)O)=C(CSc3nc(=O)c(=O)[nH]n3C)CS[C@H]12)c1csc(N)n1; assay: purified protein, by the assay type; conditions: other: KPC-2; determined with nitrocefin as reporter in competitive assays; pH 7.0
[10] = test system: CC(=O)OCC1=C(C(=O)O)N2C(=O)[C@@H](NC(=O)Cc3cccs3)[C@H]2SC1; assay: purified protein, by the assay type; conditions: other: KPC-2, 50 mM sodium phosphate pH 7.0, room temperature
[11] = test system: CO/N=C(\C(=O)N[C@@H]1C(=O)N2C(C(=O)O)=C(COC(N)=O)CS[C@H]12)c1ccco1; assay: purified protein, by the assay type; conditions: other: KPC-2, 50 mM sodium phosphate pH 7.0, room temperature
[12] = test system: CCN1CCN(C(=O)N[C@@H](C(=O)N[C@@H]2C(=O)N3[C@@H]2SC(C)(C)[C@@H]3C(=O)O)c2ccccc2)C(=O)C1=O; assay: purified protein, by the assay type; conditions: other: KPC-2, 50 mM sodium phosphate pH 7.0, room temperature
[13] = test system: C[C@@H](O)[C@H]1C(=O)N2C(C(=O)O)=C(S[C@@H]3CN[C@H](C(=O)N(C)C)C3)[C@H](C)[C@H]12; assay: purified protein, by the assay type; conditions: other: KPC-2, 50 mM sodium phosphate pH 7.0, room temperature
[14] = test system: C[C@@H](O)[C@H]1C(=O)N2C(C(=O)O)=C(SCCN=CN)C[C@H]12; assay: purified protein, by the assay type; conditions: other: KPC-2, 50 mM sodium phosphate pH 7.0, room temperature
KPC-2 [15] = conditions: ceftazidime as reporter substrate, ref 20 Oueslati et al.; cited from earlier work
[16] = E. coli TOP10F´ recipient strain, Mueller Hinton broth + 50 µM IPTG, combinations given as β-lactam/inhibitor
[17] = 50 mM sodium phosphate pH 7.0, room temperature
[18] = determined with nitrocefin as reporter in competitive assays

## C[C@H]1[C@H](NC(=O)/C(=N\OC(C)(C)C(=O)O)c2csc(N)n2)C(=O)N1S(=O)(=O)O [Aztreonam]
E. coli TOP10F´/pMBLe
  MIC: ≤ 0.25 µg/mL
E. coli TOP10F´; [16]
  MIC: ≤ 0.25 µg/mL

## CO/N=C(\C(=O)N[C@@H]1C(=O)N2C(C(=O)[O-])=C(C[N+]3(C)CCCC3)CS[C@H]12)c1csc(N)n1 [Cefepime]
[1]
  MIC: 1 µg/mL
E. coli TOP10F´/pMBLe
  MIC: ≤ 0.25 µg/mL
[2]
  MIC: 1 µg/mL
KPC-14 [3]
  hydrolytic efficiency (kcat/KM) fold increase, KPC-14 vs KPC-2: 3 fold
  kcat: 0.61 ± 0.03 s⁻¹
KPC-14 [3]; [17]
  Km: 7 ± 1 µM
E. coli TOP10F´; [16]
  MIC: ≤ 0.25 µg/mL

## C[C@@H](O)[C@H]1C(=O)N2C(C(=O)O)=C(SCCN=CN)C[C@H]12 [Imipenem]
[1]
  MIC: 0.25 µg/mL
  MIC interpretation in KPC-14 recombinant clone: within the susceptibility range
E. coli TOP10F´/pMBLe
  MIC: 0.12 µg/mL
[2]
  MIC: 2 µg/mL
KPC-14 [4]
  turnover (kcat) fold reduction, KPC-14: 1,000 fold
KPC-14 [3]
  kcat/KM fold lower, KPC-14 vs KPC-2: 11 fold
  kcat: (5.93 ± 0.02) × 10^−3 s^−1
KPC-14 [3]; [18]
  Km: 0.55 ± 0.02 µM
KPC-14 [3]; this work
  turnover (kcat) fold decrease, KPC-14 vs KPC-2: 2,500 fold
E. coli TOP10F´; [16]
  MIC: 0.12 µg/mL

## O=C(O)[C@H]1/C(=C/CO)O[C@@H]2CC(=O)N21 [clavulanic acid]
KPC-2 [5]; 300 µM clavulanic acid
  inhibition of nitrocefin hydrolysis at 300 µM inhibitor: residual hydrolytic activity
KPC-2 [5]; 235 nm, inhibitor five times above KM, 100 nM enzyme
  kcat (turnover of inhibitor hydrolysis): 11.60 ± 0.01 s⁻¹
KPC-2 [5]; nitrocefin competition
  KM (Ki app expressed as KM): 80000 ± 8000 nM
KPC-14 [6]; inhibitor five times above Ki app, 100 nM enzyme
  hydrolysis of inhibitor monitored at 235 nm: No hydrolytic activity was detected
KPC-14 [6]; nitrocefin competition, read-out: Ki app
  Ki: 8500 ± 1100 nM
KPC-14 [6]; nitrocefin hydrolysis time courses
  concentration sufficient for complete inhibition of enzyme activity: 16 µM

## KPC-2 (Klebsiella pneumoniae)
[7]
  Km: 59 ± 5 µM
  kcat: 1.31 ± 0.04 s⁻¹
[8]
  Km: 1,319 ± 145^a µM
  kcat: 0.9 ± 0.1 s⁻¹
  kcat/Km: 830 ± 40 M⁻¹ s⁻¹
[9]
  Km: 267 ± 29^a µM
  kcat: 52 ± 7 s⁻¹
  kcat/Km: 194000 ± 6000 M⁻¹ s⁻¹
[10]
  Km: 159 ± 15 µM
  kcat: 56 ± 2 s⁻¹
  kcat/Km: 360000 ± 40000 M⁻¹ s⁻¹
[11]
  Km: 319 ± 48 µM
  kcat: 85 ± 8 s⁻¹
  kcat/Km: 270000 ± 50000 M⁻¹ s⁻¹
[12]
  Km: 97 ± 12 µM
  kcat: 29 ± 1 s⁻¹
  kcat/Km: 300000 ± 40000 M⁻¹ s⁻¹
[13]
  Km: 31 ± 2 µM
  kcat: 2.85 ± 0.06 s⁻¹
  kcat/Km: 91000 ± 6000 M⁻¹ s⁻¹
[14]
  Km: 120 ± 9 µM
  kcat: 15 ± 0.4 s⁻¹
  kcat/Km: 120000 ± 10000 M⁻¹ s⁻¹

## CC1(C)S[C@@H]2[C@H](NC(=O)[C@H](N)c3ccccc3)C(=O)N2[C@H]1C(=O)O [Ampicillin]
[1]
  MIC: 64 µg/mL
[2]
  MIC: 1020 µg/mL
KPC-14 [3]
  kcat/KM fold lower, KPC-14 vs KPC-2: 24 fold
  kcat: 0.83 ± 0.02 s⁻¹
KPC-14 [3]; [17]
  Km: 95 ± 10 µM
E. coli TOP10F´; [16]
  MIC: 2 µg/mL

## CC(=O)OCC1=C(C(=O)O)N2C(=O)[C@@H](NC(=O)Cc3cccs3)[C@H]2SC1 [Cephalothin]
[1]
  MIC: 64 µg/mL
[2]
  MIC: 256 µg/mL
E. coli TOP10F´; [16]
  MIC: 8 µg/mL

## C[C@@H](O)[C@H]1C(=O)N2C(C(=O)O)=C(S[C@@H]3CN[C@H](C(=O)N(C)C)C3)[C@H](C)[C@H]12 [Meropenem]
[1]
  MIC: ≤ 0.03 µg/mL
  MIC interpretation in KPC-14 recombinant clone: within the susceptibility range
E. coli TOP10F´/pMBLe
  MIC: ≤ 0.03 µg/mL
[2]
  MIC: 1 µg/mL
KPC-14 [3]
  kcat/KM fold lower, KPC-14 vs KPC-2: 1,000 fold
  kcat: (8.8000 ± 0.0001) × 10^−4 s^−1
KPC-14 [3]; [18]
  Km: 10 ± 1 µM
E. coli TOP10F´; [16]
  MIC: ≤ 0.03 µg/mL

## CC(C)(O/N=C(\C(=O)N[C@@H]1C(=O)N2C(C(=O)[O-])=C(C[n+]3ccccc3)CS[C@H]12)c1csc(N)n1)C(=O)O [Ceftazidime]
[1]
  MIC: 32 µg/mL
[2]
  MIC: 2 µg/mL
E. coli TOP10F´; [16]
  MIC: 0.12 µg/mL

## CO/N=C(\C(=O)N[C@@H]1C(=O)N2C(C(=O)O)=C(CSc3nc(=O)c(=O)[nH]n3C)CS[C@H]12)c1csc(N)n1 [Ceftriaxone]
E. coli TOP10F´/pMBLe
  MIC: ≤ 0.25 µg/mL
E. coli TOP10F´
  MIC: ≤ 0.25 µg/mL

## NC(=O)[C@@H]1CC[C@@H]2CN1C(=O)N2OS(=O)(=O)O [Avibactam, avibactam]
KPC-2 [15]
  IC50: […]
KPC-14 [4]; KPC-14, ceftazidime as reporter substrate
  IC50: 107 nM

— paper PMC12135508 (Antimicrobial Agents and Chemotherapy, 2025)
